Measurements taken from patent publication US8802678B2, “Carbonylated (aza) cyclohexanes as dopamine D3 receptor ligands” (Bioprojet, priority 2006, dated 2014).

| melting point | SMILES |
| --- | --- |
| 247 °C | N#CCC(=O)N[C@H]1CC[C@H](CCN2CCN(c3ccc(Cl)cc3)CC2)CC1 [Example 275, N-(4-{2-[4-(4-Chlorophenyl)piperazin-1-yl]ethyl}cyclohexyl)-2-cyanoacetamide] |
| 157 °C | N#CCC(=O)N[C@H]1CC[C@H](CCN2CCN(c3cccc(-c4ccccc4)c3)CC2)CC1 [Example 276, N-{4-[2-(4-Biphenyl-3-yl-piperazin-1-yl)ethyl]cyclohexyl}-2-cyanoacetamide] |
| 181 °C | N#CCC(=O)N[C@H]1CC[C@H](CCN2CCN(c3ccc(F)c(C(F)(F)F)c3)CC2)CC1 [Example 277, 2-Cyano-N-(4-{2-[4-(4-fluoro-3-trifluoromethylphenyl)piperazin-1-yl]ethyl}cyclohexyl)acetamide] |
| 146 °C | Cc1ccc(F)cc1N1CCN(CC[C@H]2CC[C@H](NC(=O)CCC#N)CC2)CC1 [Example 278, 3-Cyano-N-(4-{2-[4-(5-fluoro-2-methylphenyl)piperazin-1-yl]ethyl}cyclohexyl)propanamide] |
| 168 °C | N#CCC(=O)N[C@H]1CC[C@H](CCN2CCN(c3cccc(Br)c3)CC2)CC1 [Example 280, N-(4-{2-[4-(3-Bromophenyl)piperazin-1-yl]ethyl}cyclohexyl)-2-cyanoacetamide] |
| 150 °C | CC(F)(F)c1cccc(N2CCN(CC[C@H]3CC[C@H](NC(=O)CC#N)CC3)CC2)c1 [Example 281, 2-Cyano-N-[4-(2-{4-[3-(1,1-difluoroethyl)phenyl]piperazin-1-yl}ethyl)cyclohexyl]acetamide trans/cis 90/10] |
| 150 °C | CC(C)(C#N)C(=O)N[C@H]1CC[C@H](CCN2CCN(c3cccc(C(F)(F)F)c3)CC2)CC1 [Example 282, 2-Cyano-2,2-dimethyl-N-(4-{2-[4-(3-trifluoromethylphenyl)-piperazin-1-yl]ethyl}cyclohexyl)-acetamide] |
| 154 °C | N#CCCCC(=O)N[C@H]1CC[C@H](CCN2CCN(c3ccc(F)cc3)CC2)CC1 [Example 283, 4-Cyano-N-(4-{2-[4-(4-fluorophenyl)piperazin-1-yl]ethyl}cyclohexyl)butanamide] |
| 200 °C | O=C(CC(F)(F)F)N[C@H]1CC[C@H](CCN2CCN(c3ccc(F)cc3)CC2)CC1 [Example 284, 3,3,3-Trifluoro-N-(4-{2-[4-(4-fluorophenyl)piperazin-1-yl]ethyl}cyclohexyl)propanamide] |
| 210 °C | CCc1ccc(N2CCN(CC[C@H]3CC[C@H](NC(=O)CC#N)CC3)CC2)cc1 [Example 285, 2-Cyano-N-(4-{2-[4-(4-ethylphenyl)piperazin-1-yl]ethyl}cyclohexyl)acetamide] |
| 124 °C | CCc1ccccc1N1CCN(CC[C@H]2CC[C@H](NC(=O)CCCC#N)CC2)CC1 [Example 286, 4-Cyano-N-(4-{2-[4-(2-ethylphenyl)piperazin-1-yl]ethyl}cyclohexyl)butanamide] |
| 131 °C | O=C(C[C@H]1CC[C@H](CCN2CCN(c3cccc(C(F)(F)F)c3)CC2)CC1)N1CCCC1 [Example 294, 1-Pyrrolidin-1-yl-2-(4-{2-[4-(3-trifluoromethylphenyl)piperazin-10yl]ethyl}cyclohexyl)ethanone] |
| 135 °C | CNC(=O)C=C1CCC(CCN2CCN(c3ccccc3F)CC2)CC1 (centres unmarked) [Example 299, 2-(4-{2-[4-(2-Fluorophenyl)piperazin-1-yl]ethyl}cyclohexylidene)-N-methylacetamide] |
| 165 to 166 °C | CNC(=O)C[C@H]1CC[C@H](CCN2CCN(c3ccccc3F)CC2)CC1 [Example 300, 2-(4-{2-[4-(2-Fluorophenyl)-piperazin-1-yl]ethyl}cyclohexyl)-N-methylacetamide] |
| 109 to 110 °C | O=C(C=C1CCC(CCN2CCN(c3ccccc3F)CC2)CC1)N1CCCC1 (centres unmarked) [Example 301, 2-(4-{2-[4-(2-Fluorophenyl)-piperazin-1-yl]ethyl}cyclohexylidene)-1-pyrrolidin-1-ylethanone] |
| 92 to 93 °C | O=C(C[C@H]1CC[C@H](CCN2CCN(c3ccccc3F)CC2)CC1)N1CCCC1 [Example 302, 2-(4-{2-[4-(2-Fluorophenyl)-piperazin-1-yl]ethyl}cyclohexyl)-1-pyrrolidin-1-ylethanone] |
| 125 °C | O=C(C=C1CCC(CCN2CCN(c3ccccc3F)CC2)CC1)NCC(F)(F)F (centres unmarked) [Example 303, 2-(4-{2-[4-(2-Fluorophenyl)-piperazin-1-yl]ethyl}cyclo-hexylidene)-N-(2,2,2-trifluoroethyl)acetamide] |
| 158 to 159 °C | O=C(C[C@H]1CC[C@H](CCN2CCN(c3ccccc3F)CC2)CC1)NCC(F)(F)F [Example 304, 2-(4-{2-[4-(2-Fluorophenyl)piperazin-1-yl]ethyl}cyclohexyl)-N-(2,2,2-trifluoroethyl)acetamide] |
| 150 °C | CCCNC(=O)C[C@H]1CC[C@H](CCN2CCN(c3ccccc3F)CC2)CC1 [Example 306, 2-(4-{2-[4-(2-Fluorophenyl)-piperazin-1-yl]ethyl}cyclohexyl)-N-propylacetamide] |

| melting point | SMILES |
| --- | --- |
| 92 °C | CC(=O)CN1CCC(CCN2CCN(c3ccc(C)cc3)CC2)CC1 [Example 310, 1-{4-[2-(4-p-Tolylpiperazin-1-yl)ethyl]piperidin-1-yl}propan-2-one] |
| 126 °C | CC(=O)CN1CCC(CCN2CCN(c3cc(Cl)cc(Cl)c3)CC2)CC1 [Example 311, 1-(4-{2-[4-(3,5-Dichlorophenyl)-piperazin-1-yl]ethyl}piperidin-1-yl)propan-2-one] |
| 142 °C | CCCc1cccc(N2CCN(CC[C@H]3CC[C@H](NC(=O)CCCC#N)CC3)CC2)c1 [Example 312, 4-Cyano-N-(4-{2-[4-(3-propylphenyl)piperazin-1-yl]ethyl}cyclohexyl)butanamide] |
| 174 °C | Cc1c(F)cccc1N1CCN(CC[C@H]2CC[C@H](NC(=O)CC#N)CC2)CC1 [Example 313, 2-Cyano-N-(4-{2-[4-(3-fluoro-2-methylphenyl)piperazin-1-yl]ethyl}cyclohexyl)acetamide] |
| 179 °C | CC(F)(F)c1cccc(N2CCN(CC[C@H]3CC[C@H](NC(=O)CCCC#N)CC3)CC2)c1 [Example 314, 4-Cyano-N-[4-(2-{4-[3-(1,1-difluoroethyl)phenyl]piperazin-1-yl}ethyl)cyclohexyl]butanamide] |
| 226 °C | N#CCC(=O)N[C@H]1CC[C@H](CCN2CCN(c3ccc4c(c3)OCO4)CC2)CC1 [Example 315, N-{4-[2-(4-Benzo[1,3]dioxol-5-ylpiperazin-1-yl)ethyl]cyclohexyl}-2-cyanoacetamide] |
| 208 °C | N#CCC(=O)N[C@H]1CC[C@H](CCN2CCN(c3ccc4c(c3)OCCO4)CC2)CC1 [Example 316, 2-Cyano-N-(4-{2-[4-(2,3-dihydrobenzo[1,4]dioxin-6-yl)piperazin-1-yl]ethyl}cyclohexyl)acetamide] |
| 207 °C | O=C(CC(F)(F)F)N[C@H]1CC[C@H](CCN2CCN(c3cccc4ncccc34)CC2)CC1 [Example 320, 3,3,3-Trifluoro-N-{4-[2-(4-quinolin-5-ylpiperazin-1-yl)ethyl]cyclohexyl}propanami-de] |
| 155 °C | N#CCCCC(=O)N[C@H]1CC[C@H](CCN2CCN(c3cccc4ncccc34)CC2)CC1 [Example 321, 4-Cyano-N-{4-[2-(4-quinolin-5-ylpiperazin-1-yl)ethyl]cyclohexyl}butanamide] |
| 192 °C | Cc1cc(N2CCN(CC[C@H]3CC[C@H](NC(=O)CC#N)CC3)CC2)ccc1F [Example 322, 2-Cyano-N-(4-{2-[4-(4-fluoro-3-methylphenyl)piperazin-1-yl]ethyl}cyclohexyl)acetamide] |
| 197 °C | N#CCC(=O)N[C@H]1CC[C@H](CCN2CCN(c3ccc(F)c(F)c3)CC2)CC1 [Example 325, 2-Cyano-N-(4-{2-[4-(3,4-difluorophenyl)piperazin-1-yl]ethyl}cyclohexyl)acetamide] |
| 101 °C | CCc1cccc(N2CCN(CC[C@H]3CC[C@@H](NC(=O)CC#N)CC3)CC2)c1 [Example 328, 2-Cyano-N-(4-{2-[4-(3-ethylphenyl)piperazin-1-yl]ethyl}cyclohexyl)acetamide] |
| 153 °C | C[S+]([O-])CC(=O)N[C@H]1CC[C@H](CCN2CCN(c3cccc(C(F)(F)F)c3)CC2)CC1 (some centres unmarked) [Example 334, 2-Methanesulfinyl-N-(4-{2-[4-(3-trifluoromethylphenyl)piperazin-1-yl]ethyl}cyclohexyl)acetamide] |
| 153 °C | CC(C)c1cccc(N2CCN(CC[C@H]3CC[C@H](NC(=O)CC#N)CC3)CC2)c1 [Example 335, 2-Cyano-N-(4-{2-[4-(3-isopropylphenyl)piperazin-1-yl]ethyl}cyclohexyl)acetamide] |
| 119 °C | Cc1cc(C)cc(N2CCN(CC[C@H]3CC[C@@H](NC(=O)CC#N)CC3)CC2)c1 [Example 336, 2-Cyano-N-(4-{2-[4-(3,5-dimethylphenyl)piperazin-1-yl]ethyl}cyclohexyl)acetamide] |
| 158 °C | CS(=O)(=O)CC(=O)N[C@H]1CC[C@H](CCN2CCN(c3cccc(C(F)(F)F)c3)CC2)CC1 [Example 337, 2-Methanesulfonyl-N-(4-{2-[4-(3-trifluoromethylphenyl)piperazin-1-yl]ethyl}cyclohexyl)acetamide] |
| 208 °C | Cc1ccc(N2CCN(CC[C@H]3CC[C@H](NC(=O)CC#N)CC3)CC2)cc1F [Example 339, 2-Cyano-N-(4-{2-[4-(3-fluoro-4-methylphenyl)piperazin-1-yl]ethyl}cyclohexyl)acetamide] |
| 210 °C | Cc1ccc(N2CCN(CC[C@H]3CC[C@H](NC(=O)CC#N)CC3)CC2)cc1C [Example 340, 2-Cyano-N-(4-{2-[4-(3,4-dimethylphenyl)piperazin-1-yl]ethyl}cyclohexyl)acetamide] |
| 209 °C | N#CCC(=O)N[C@H]1CC[C@H](CCN2CCN(c3cc(F)c(F)c(F)c3)CC2)CC1 [Example 341, 2-Cyano-N-(4-{2-[4-(3,4,5-trifluorophenyl)piperazin-1-yl]ethyl}cyclohexyl)acetamide] |
